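Growth conditions: 96-well plates. Treatment: test compound, 48 hours, 5 concentrations. Analysis: linear interpolation between bracketing concentrations; unreached endpoints set to highest concentration. TGI is the concentration that stops growth completely.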
Legend:
Assay in all cases: inhibition of tumour cell growth, NCI panel, 48 h
OVCAR-8 ovarian = system: OVCAR-8 ovarian
OVCAR-5 ovarian = system: OVCAR-5 ovarian
UACC-62 melanoma = system: UACC-62 melanoma
MCF7 breast = system: MCF7 breast
IGROV1 ovarian = system: IGROV1 ovarian
RPMI-8226 leukemia = system: RPMI-8226 leukemia
SNB-19 CNS = system: SNB-19 CNS
SK-MEL-5 melanoma = system: SK-MEL-5 melanoma
HOP-92 NSCLC = system: HOP-92 NSCLC
EKVX NSCLC = system: EKVX NSCLC
HT29 colon = system: HT29 colon
M14 melanoma = system: M14 melanoma
MDA-MB-435 = system: MDA-MB-435
A498 renal = system: A498 renal
K-562 leukemia = system: K-562 leukemia
SN12C renal = system: SN12C renal
NCI-H226 lung = system: NCI-H226 lung
SF-539 CNS = system: SF-539 CNS
HL-60(TB) leukemia = system: HL-60(TB) leukemia

C=C[C@@]1(C)CC[C@@H]2[C@@]3(C1)O[C@H]3CC1[C@](C)(C(=O)OC)CCC[C@@]12C (stereo partly specified)
TGI (OVCAR-8 ovarian): 40.9 µM
TGI (OVCAR-5 ovarian): 32.3 µM
TGI (UACC-62 melanoma): > 100 µM
TGI (MCF7 breast): 33.2 µM
TGI (IGROV1 ovarian): 58.4 µM
TGI (RPMI-8226 leukemia): 65.6 µM
TGI (SNB-19 CNS): 30.3 µM
TGI (SK-MEL-5 melanoma): 33.7 µM
TGI (HOP-92 NSCLC): 33.8 µM
TGI (EKVX NSCLC): 38.6 µM
TGI (HT29 colon): 27.1 µM
TGI (M14 melanoma): 39.7 µM
TGI (MDA-MB-435): > 100 µM
TGI (A498 renal): > 100 µM
TGI (K-562 leukemia): > 100 µM

O=C(NNC(=S)Nc1ccccc1)c1cc(-c2ccccc2)nc2ccccc12
TGI (OVCAR-8 ovarian): 57.6 µM
TGI (SN12C renal): 40.6 µM
TGI (OVCAR-5 ovarian): 36.3 µM
TGI (NCI-H226 lung): 63.8 µM
TGI (UACC-62 melanoma): 39.1 µM
TGI (MCF7 breast): 60.8 µM
TGI (IGROV1 ovarian): > 100 µM
TGI (RPMI-8226 leukemia): 44.9 µM
TGI (SNB-19 CNS): > 100 µM
TGI (SK-MEL-5 melanoma): 27 µM
TGI (HOP-92 NSCLC): 37.7 µM
TGI (HT29 colon): > 100 µM
TGI (SF-539 CNS): 38.7 µM
TGI (M14 melanoma): 30.5 µM
TGI (MDA-MB-435): 59.4 µM
TGI (A498 renal): 28 µM
TGI (K-562 leukemia): 63.2 µM

CN(C)c1ccc(/C=C/C(=O)CC(=O)/C=C/c2ccc(N(C)C)cc2)cc1
TGI (OVCAR-8 ovarian): > 100 µM
TGI (SN12C renal): > 100 µM
TGI (HL-60(TB) leukemia): > 100 µM
TGI (OVCAR-5 ovarian): > 100 µM
TGI (NCI-H226 lung): > 100 µM
TGI (UACC-62 melanoma): > 100 µM
TGI (MCF7 breast): > 100 µM
TGI (IGROV1 ovarian): > 100 µM
TGI (RPMI-8226 leukemia): > 100 µM
TGI (SNB-19 CNS): > 100 µM
TGI (SK-MEL-5 melanoma): > 100 µM
TGI (EKVX NSCLC): > 100 µM
TGI (HT29 colon): > 100 µM
TGI (SF-539 CNS): > 100 µM
TGI (M14 melanoma): > 100 µM
TGI (MDA-MB-435): > 100 µM
TGI (K-562 leukemia): > 100 µM

O=NN1C(c2ccccc2)CC(=NO)CC1c1ccccc1 (stereo unspecified)
TGI (OVCAR-8 ovarian): > 100 µM
TGI (SN12C renal): > 100 µM
TGI (HL-60(TB) leukemia): > 100 µM
TGI (NCI-H226 lung): > 100 µM
TGI (UACC-62 melanoma): > 100 µM
TGI (MCF7 breast): > 100 µM
TGI (IGROV1 ovarian): > 100 µM
TGI (RPMI-8226 leukemia): > 100 µM
TGI (SNB-19 CNS): > 100 µM
TGI (SK-MEL-5 melanoma): > 100 µM
TGI (HOP-92 NSCLC): > 100 µM
TGI (EKVX NSCLC): > 100 µM
TGI (HT29 colon): > 100 µM
TGI (SF-539 CNS): > 100 µM
TGI (M14 melanoma): > 100 µM
TGI (MDA-MB-435): > 100 µM
TGI (K-562 leukemia): > 100 µM

N#CC(C#N)=C1c2ccccc2C(=NN)c2ccccc21
TGI (OVCAR-8 ovarian): > 100 µM
TGI (SN12C renal): > 100 µM
TGI (OVCAR-5 ovarian): > 100 µM
TGI (NCI-H226 lung): > 100 µM
TGI (UACC-62 melanoma): > 100 µM
TGI (MCF7 breast): > 100 µM
TGI (IGROV1 ovarian): > 100 µM
TGI (RPMI-8226 leukemia): > 100 µM
TGI (SNB-19 CNS): > 100 µM
TGI (SK-MEL-5 melanoma): > 100 µM
TGI (HOP-92 NSCLC): > 100 µM
TGI (HT29 colon): > 100 µM
TGI (SF-539 CNS): > 100 µM
TGI (M14 melanoma): > 100 µM
TGI (MDA-MB-435): > 100 µM
TGI (A498 renal): > 100 µM
TGI (K-562 leukemia): > 100 µM

O=c1ccn2n1Cc1ccccc1C2
TGI (OVCAR-8 ovarian): > 100 µM
TGI (SN12C renal): > 100 µM
TGI (HL-60(TB) leukemia): > 100 µM
TGI (OVCAR-5 ovarian): > 100 µM
TGI (NCI-H226 lung): > 100 µM
TGI (UACC-62 melanoma): > 100 µM
TGI (IGROV1 ovarian): > 100 µM
TGI (RPMI-8226 leukemia): > 100 µM
TGI (SNB-19 CNS): > 100 µM
TGI (SK-MEL-5 melanoma): > 100 µM
TGI (HOP-92 NSCLC): > 100 µM
TGI (EKVX NSCLC): > 100 µM
TGI (HT29 colon): > 100 µM
TGI (SF-539 CNS): > 100 µM
TGI (M14 melanoma): > 100 µM
TGI (MDA-MB-435): > 100 µM
TGI (A498 renal): > 100 µM
TGI (K-562 leukemia): > 100 µM

CC(=O)OCCCC(NC(=O)OC(C)(C)C)C(=O)NC(CCCOC(C)=O)C(=O)NC(Cc1ccc([N+](=O)[O-])cc1)C(=O)NCC(=O)OCc1ccccc1 (stereo unspecified)
TGI (OVCAR-8 ovarian): 31 µM
TGI (SN12C renal): 31.6 µM
TGI (HL-60(TB) leukemia): 19.5 µM
TGI (OVCAR-5 ovarian): 31.4 µM
TGI (NCI-H226 lung): 31.3 µM
TGI (UACC-62 melanoma): 29 µM
TGI (MCF7 breast): 32.2 µM
TGI (IGROV1 ovarian): 34 µM
TGI (RPMI-8226 leukemia): 44.6 µM
TGI (SNB-19 CNS): 32.9 µM
TGI (SK-MEL-5 melanoma): 30.1 µM
TGI (HOP-92 NSCLC): 42.1 µM
TGI (EKVX NSCLC): 33.3 µM
TGI (HT29 colon): 31.9 µM
TGI (SF-539 CNS): 28.9 µM
TGI (M14 melanoma): 25.6 µM
TGI (MDA-MB-435): 31.1 µM
TGI (K-562 leukemia): 96 µM

O=c1cc(-c2ccccc2)c2ccccc2[nH]1
TGI (OVCAR-8 ovarian): > 100 µM
TGI (SN12C renal): > 100 µM
TGI (HL-60(TB) leukemia): > 100 µM
TGI (OVCAR-5 ovarian): > 100 µM
TGI (NCI-H226 lung): 99.8 µM
TGI (UACC-62 melanoma): > 100 µM
TGI (IGROV1 ovarian): > 100 µM
TGI (RPMI-8226 leukemia): > 100 µM
TGI (SK-MEL-5 melanoma): 93.2 µM
TGI (HOP-92 NSCLC): 48.1 µM
TGI (HT29 colon): > 100 µM
TGI (SF-539 CNS): > 100 µM
TGI (M14 melanoma): > 100 µM
TGI (K-562 leukemia): > 100 µM

Cc1ccc2nc3c(=O)[nH]c(=O)nc-3n(C)c2c1C
TGI (OVCAR-8 ovarian): > 100 µM
TGI (SN12C renal): > 100 µM
TGI (HL-60(TB) leukemia): > 100 µM
TGI (OVCAR-5 ovarian): > 100 µM
TGI (NCI-H226 lung): > 100 µM
TGI (UACC-62 melanoma): > 100 µM
TGI (MCF7 breast): > 100 µM
TGI (IGROV1 ovarian): > 100 µM
TGI (RPMI-8226 leukemia): > 100 µM
TGI (SNB-19 CNS): > 100 µM
TGI (SK-MEL-5 melanoma): > 100 µM
TGI (EKVX NSCLC): > 100 µM
TGI (HT29 colon): > 100 µM
TGI (SF-539 CNS): > 100 µM
TGI (M14 melanoma): > 100 µM
TGI (MDA-MB-435): > 100 µM
TGI (K-562 leukemia): > 100 µM

CCCc1cc(=O)oc2c3c(c4c(c12)OC(C)(C)CC4)O[C@@H](C)[C@H](C)[C@H]3O
TGI (OVCAR-8 ovarian): 29.9 µM
TGI (SN12C renal): 18.9 µM
TGI (OVCAR-5 ovarian): 26.3 µM
TGI (NCI-H226 lung): 31.6 µM
TGI (UACC-62 melanoma): 21.1 µM
TGI (MCF7 breast): 47.3 µM
TGI (IGROV1 ovarian): 32.7 µM
TGI (RPMI-8226 leukemia): 8.74 µM
TGI (SNB-19 CNS): 30.9 µM
TGI (SK-MEL-5 melanoma): 20.3 µM
TGI (HOP-92 NSCLC): 26.5 µM
TGI (EKVX NSCLC): 29.4 µM
TGI (HT29 colon): 20.7 µM
TGI (SF-539 CNS): 38.2 µM
TGI (M14 melanoma): 28.3 µM
TGI (MDA-MB-435): 22.1 µM
TGI (K-562 leukemia): 7.17 µM

COc1cc(C(=O)/C=C/c2ccc(OCC#N)cc2)cc(OC)c1OC
TGI (OVCAR-8 ovarian): > 100 µM
TGI (SN12C renal): 36.3 µM
TGI (OVCAR-5 ovarian): > 100 µM
TGI (NCI-H226 lung): 58.5 µM
TGI (UACC-62 melanoma): 48.5 µM
TGI (MCF7 breast): 23.3 µM
TGI (IGROV1 ovarian): > 100 µM
TGI (SNB-19 CNS): 54.4 µM
TGI (SK-MEL-5 melanoma): 25.9 µM
TGI (HOP-92 NSCLC): 35.9 µM
TGI (EKVX NSCLC): > 100 µM
TGI (HT29 colon): > 100 µM
TGI (SF-539 CNS): 33.2 µM
TGI (MDA-MB-435): 40.2 µM
TGI (A498 renal): 65.9 µM
TGI (K-562 leukemia): 86.9 µM

COC(=O)/C=C\COCC1C2CCC(=O)C21 (stereo unspecified)
TGI (OVCAR-8 ovarian): > 25 µM
TGI (SN12C renal): > 25 µM
TGI (OVCAR-5 ovarian): > 25 µM
TGI (NCI-H226 lung): > 25 µM
TGI (UACC-62 melanoma): > 25 µM
TGI (MCF7 breast): > 25 µM
TGI (IGROV1 ovarian): > 25 µM
TGI (RPMI-8226 leukemia): > 25 µM
TGI (SNB-19 CNS): > 25 µM
TGI (SK-MEL-5 melanoma): > 25 µM
TGI (HOP-92 NSCLC): 10.6 µM
TGI (EKVX NSCLC): > 25 µM
TGI (HT29 colon): > 25 µM
TGI (SF-539 CNS): 19.4 µM
TGI (M14 melanoma): > 25 µM
TGI (MDA-MB-435): > 25 µM
TGI (K-562 leukemia): > 25 µM

O=[N+]([O-])C(=C(Nc1ccccc1)Nc1ccccc1)/C(Cl)=C(\Cl)[N+](=O)[O-]
TGI (OVCAR-8 ovarian): 2.77 µM
TGI (SN12C renal): 7.77 µM
TGI (OVCAR-5 ovarian): 22.7 µM
TGI (NCI-H226 lung): 34.5 µM
TGI (UACC-62 melanoma): 18.7 µM
TGI (MCF7 breast): 20.3 µM
TGI (RPMI-8226 leukemia): 19.2 µM
TGI (SNB-19 CNS): 26.8 µM
TGI (SK-MEL-5 melanoma): 5.05 µM
TGI (EKVX NSCLC): 19.5 µM
TGI (HT29 colon): 8.73 µM
TGI (SF-539 CNS): 4.15 µM
TGI (M14 melanoma): 16.8 µM
TGI (MDA-MB-435): 10.5 µM
TGI (A498 renal): 46.2 µM
TGI (K-562 leukemia): > 100 µM
